System: M. tuberculosis H37Rv growth inhibition
Assay: M. tuberculosis H37Rv growth inhibitors, H37Rv strain (AID 1626)
Settings: for IC90: measured here: IC90 against H37Rv; for CC50: measured here: Vero cell cytotoxicity

Row | SMILES | IC50 [µM] | IC90 [µM] | CC50 [µM]
1 | O=C(CSc1ccncc1)Nc1ccc2ccccc2c1 | 1.15 | > 100 | 
2 | CC(C)(C)c1ccc(C(=O)NCCCN2CCN(CCCNC(=O)c3ccc(C(C)(C)C)cc3)CC2)cc1 | 5.43 | 7.12 | 27.4
3 | CC(C)(c1ccccc1)c1ccc(OCC(O)CNC2CCN(Cc3ccccc3)CC2)cc1 (stereo not drawn) | 4.53 | 6.06 | 6.22
4 | Cc1ccccc1N1CCN(C2=NC(=O)/C(=C\c3cccs3)S2)CC1 | 14.2 | 21 | > 40
5 | Cc1ccc(-c2nnc(SCC#CCOC(=O)c3ccco3)o2)cc1 | < 0.391 | 3.43 | 
6 | O=C(COC(=O)Cc1ccccc1F)Nc1ccc2c(c1)OCO2 |  | > 100 | 
7 | CCOc1ccc(N=C(/C(C(=O)C(=O)N2CCOCC2)=C(\O)c2ccccc2)c2ccccc2)cc1 | 38.6 | > 100 | 
8 | O=c1c2ccccc2nc(-c2ccc(Cl)c(Cl)c2)n1O | 43.8 | > 100 | > 40
9 | CN1CCN(CCCNC(=O)c2ccc(/C=C3\Sc4ccccc4N(Cc4ccc(F)cc4)C3=O)cc2)CC1 | 6.38 | 11.3 | 12.5
10 | COc1ccc(-c2noc(CCC(=O)Nc3ccc(C)c(C)c3)n2)cc1 | 22.6 | > 100 | 
11 | CC1CC1C(=O)Nc1ccc(-c2ccccc2)cc1 (stereo not drawn) | 0.31 | > 100 | 
12 | CCOC(=O)N1CCN(C(=O)CSc2nnc(COc3ccccc3)o2)CC1 | 24.7 | 40 | 
13 | Cc1ccc(C(C)C)c(OCc2nn(CC(=O)c3ccc(OC(F)F)cc3)c3[n+]2CCCCC3)c1 | 1.07 | 1.46 | > 40
14 | C[n+]1c2n(c3ccccc31)N=C(c1cc(C(C)(C)C)c(O)c(C(C)(C)C)c1)CS2 | 2.54 | 3.14 | > 40
15 | O=C(CCl)N(c1ccccc1)c1c[nH]c2ccccc12 | 3.84 | 8.14 | 0.995
16 | COc1cccc(-c2csc(N3CCN(C(=O)NC45CC6CC(CC(C6)C4)C5)CC3)n2)c1 | 1.09 | 1.92 | > 40
17 | COc1ccc(CCNC(=O)c2c(N)n(CCN3CCOCC3)c3nc4ccccc4nc23)cc1 | 11.3 | 19.1 | > 40
18 | Cc1cc(NC(=O)C2CCCC2)n(-c2nc3ccccc3[nH]2)n1 | 24.6 | > 100 | 
19 | CCN(CC)CCOC(=O)c1ccc(N/C=C(/C#N)c2nc(-c3ccc4c(c3)OCO4)cs2)cc1 | 13.5 | 22.6 | 7.2
20 | CC(=O)OCCCNc1cc(Sc2nc3ccccc3s2)c2nonc2c1[N+](=O)[O-] | 7.74 | 10.1 | 16.3

Row | SMILES | IC50 [µM] | IC90 [µM] | CC50 [µM]
21 | COC(=O)CSc1nc(-c2ccccc2)c2c(c1C#N)CCCC2 | 5.24 | 8.33 | 
22 | CC(=O)CC(=O)Nc1ccc2ccccc2c1 | 13.6 | > 100 | 
23 | Nc1ccc(C(=O)c2cccs2)cc1 | 22.1 | > 100 | 
24 | CCOC(=O)c1ccc(Nc2cc3ccccc3c(=O)[nH]2)cc1 | 13.4 | > 100 | 
25 | CCC(=O)Nc1ccc(-c2nc3ccccc3c(=O)o2)cc1 | 18 | 84 | 
26 | CN1CCN(c2ccc(C(=O)c3cn(-c4ccc(F)c(Cl)c4)nn3)cc2)CC1 | 3.43 | > 100 | 9.78
27 | COc1ccc(N2CSC3=C(C#N)C(c4cccc(OC)c4OC)CC(=O)N3C2)cc1 (stereo not drawn) | 54.7 | > 100 | 
28 | Fc1cccc2sc(Nc3nnc(-c4ccco4)o3)nc12 | < 0.195 | 3.19 | 36.4
29 | O=C(Nc1ccc(-n2nncc2-c2ccco2)cc1)c1cc2ccccc2oc1=O | 1.96 | 6.68 | 19.7
30 | COc1ccc(NC(=O)CCc2nc(-c3ccccc3F)no2)cc1 |  | > 100 | 
31 | O=c1oc2ccc3ccccc3c2cc1-c1nc2ccccc2o1 | 2.79 | 7.33 | 
32 | CCSc1nnc(NC(=O)c2ccccn2)s1 | 0.315 | 0.466 | 8.14
33 | CCCCOc1ccc(NC(=O)c2cnc(C)cn2)cc1 | 22.1 | > 100 | > 40
34 | CCOC(=O)c1cc(-c2csc(COc3ccccc3)n2)on1 | 1.84 | 35.2 | 
35 | CC(C)c1nnc(NC(=O)c2c(O)c3cccc4c3n(c2=O)CCC4)s1 | 0.604 | 0.731 | 6.5
36 | Cc1ccccc1NC(=O)c1ccc(OCC(=O)Nc2ccccc2F)cc1 | 76 | > 100 | 
37 | CCN(CC)CCN1c2ccccc2Sc2ccc3ccccc3c21 | 10.4 | 18.9 | > 40
38 | CCCCCn1c(=O)c(C(=O)Nc2nc3ccccc3[nH]2)c(O)c2ccccc21 | 0.706 | 0.757 | 6.6
39 | COC(=O)c1ccnc(SCC(=O)c2ccccc2)c1 | 15.8 | 26.6 | 
40 | Oc1ccc2cc(Br)ccc2c1CN1CCCC1 | 22.2 | > 100 | > 40

Row | SMILES | IC50 [µM] | IC90 [µM] | CC50 [µM]
41 | CCCCc1ccc(NC(=O)CC(C)C)cc1 | 6.02 | > 100 | 
42 | Cc1cc(=O)oc2cc(OC(=O)c3ccco3)ccc12 | 61.6 | > 100 | 
43 | O=C(CSC1=NCCS1)Nc1ccc2ccccc2c1 |  | > 100 | 
44 | COCCCNC(=O)COC(=O)c1ccc(-c2nc3ccccc3s2)s1 | 14.4 | 26.9 | > 40
45 | O=C(CCl)Nc1ccccc1C(=O)NCc1ccccc1 | 8.16 | 21.2 | 24.4
46 | O=C(CCl)Nc1cn(-c2ccccc2)nc1-c1ccccc1 | 9.87 | 38.6 | 9.49
47 | COC(=O)C(CC(C)C)NC(=O)/C=C/c1ccc(Cl)cc1 (stereo not drawn) | 3.88 | 6.5 | 
48 | Cc1nc([N+](=O)[O-])c(Br)n1Cc1ccc(Cl)c(Cl)c1 | 4.08 | 7.03 | 12.5
49 | CC1CC(C)(C)Nc2ccc(N=O)cc21 (stereo not drawn) | 5.75 | 6.38 | 6.76
50 | CCOC(=O)/C=C/C(=O)Nc1ccc(Oc2ccccc2)cc1 | 1.2 | > 100 | > 40
51 | CC(C)Cc1cc(C(=O)Nc2c(F)cc(F)cc2Br)no1 | 6.59 | 10.5 | 
52 | O=C(Nc1nc(-c2ccccn2)cs1)C12CC3CC(CC(O)(C3)C1)C2 | 3.6 | 7.8 | > 40
53 | Cc1cc(NCCCn2ccnc2)n2nc(-c3ccc(Cl)cc3)cc2n1 | 11.1 | 15.8 | > 40
54 | N#CC1=C(S)N(c2ccccc2)C(c2ccc(-c3ccc(Cl)c(Cl)c3)o2)NC1=O (stereo not drawn) | 41 | > 100 | 
55 | COc1ccc(N=C2C(=O)N3CCCc4cccc2c43)cc1 |  | > 100 | 
56 | Cc1[nH]nc2c1C(c1ccc(-c3ccc(Cl)cc3)o1)C(C#N)=C(N)O2 (stereo not drawn) | 0.749 | 91.5 | > 40
57 | c1csc(Cc2nn3c(-c4n[nH]c5c4CCC5)nnc3s2)c1 | 0.412 | 11 | > 40
58 | Cc1ccc2nc(-c3cccc(N)c3)oc2c1 | 12.7 | > 100 | > 40
59 | COc1ccc(C(C)(C)C)cc1NC(=O)COC(=O)c1cc(SC)ccc1Cl | 54.6 | > 100 | 
60 | CC(Oc1ccc2oc3ccccc3c2c1)C(=O)NC12CC3CC(CC(C3)C1)C2 (stereo not drawn) | 44.7 | > 100 | 
